Columns and labels:
mu opioid receptor (MOR) = target: T1, mu opioid receptor (MOR) (Homo sapiens, UniProt P35372); experiment: OPRMu1 Discover X β-arrestin Assay, antagonist mode (U2OS cells, DAMGO EC80 challenge); assay type: cell-based
T1 construct: host or cells: U2OS (Discover X OPRMu1-U2OS, PathHunter)
Excerpt: OPRMu1 Discover X—β-arrestin Assay—Antagonist Mode. […] This assay evaluates the OPRMu1 activation in membrane recruitment of β-arrestin. In addition, the assay evaluates GPCR-β-arrestin proximity using low affinity fragment complementation of beta-galactosidase (beta-gal). The assay employs U20S cells, which express OPRMu1 fused to the complementary beta-gal fragment (enzyme acceptor). As designed, compounds that act as antagonists will prevent receptor activation resulting in reduced well luminescence. Compounds were tested in quadruplicate using a 10-point, 1:3 dilution series starting at a nominal concentration of 10 micromolar.
The Discover X OPRMu1-U20S cell line was cultured in 150 mm dishes at 37° C., 5% CO2 and 95% relative humidity (RH).
On Day 1 of the assay, 5000 cells in 20 μL of assay buffer (Discover X's Cell Plating Reagent 5) were seeded into each well of a 384 Corning 3570 standard white plate, and incubated 16-24 hours at 37° C., 5% CO2 and 95% RH.
On Day 2, 100 nL of test compound in DMSO were added to the appropriate wells and the plates were then incubated for 30 min at 37° C. 5% CO2 and 95% RH. Next, 2.2 μL of DAMGO OPRMu1 agonist (commercially available) or DMSO in assay media. (The EC80 Challenge consists of 1.8 μL of 3.7 μM DAMGO, 0.4 μL of Assay Buffer, with a final assay concentration of 303 nM). After incubation for 3 hours at 37° C. 5% CO2, and 95% RH, 10 μL of Path Hunter Detection Mix was added to each well, and the plate was then incubated at room temperature in the dark for 1 hour. Well luminescence was measured on Perkin Elmer's Envision.
(§1) The Percent Inhibition was calculated from the median ratio as follows:
• DMEM Medium, (Invitrogen 11965) • F12 Medium, (Invitrogen 11765) • Heat Inactivated Fetal Bovine Serum, (Invitrogen 10082147) • Non Essential Amino Acids 100× (Invitrogen 11140-050) • HEPES (pH 7.3) 1M, (Invitrogen 15630-080) • Sodium Pyruvate 100× (Invitrogen 11360-070) • Penicillin Streptomycin, (Invitrogen 15640) • Trypsin 0.25% EDTA (Invitrogen 25200056) • DPBS without Calcium/Magnesium (Invitrogen 14190-136) • DMSO Dry (Sigma D2650) • DAMGO OPRMu1 Agonist MW513.19 (Sigma E7384-5MG) • B-Funaltrexamine Hydrochloride OPRM1 Antagonist MW (SIGMA 0003-2MG) • PathHunter Cell Plating 5 Reagent (Discover X 93-0563R5A) • Corning 3750 Standard 384 well white plate with lid.
PathHunter Detection Mix (DiscoverX 93-0001): 1 part Galacton Star/5 parts Emerald II/19 parts PH Cell Assay Buffer.

[1] = target: T2, kappa opioid receptor (KOR) (Homo sapiens, UniProt P41145); experiment: OPRKappa 1 Tango B-Arrestin Assay, antagonist mode (Tango OPRK1-bla U2OS cells, U50488 EC80 challenge); assay type: cell-based; conditions: for Selectivity (MOR/KOR): Kappa selectivity, MOR IC50 / KOR IC50; for IC50: antagonist mode, Tango OPRK1-bla U2OS cells, 6 nM U50488 challenge
T2 construct: host or cells: U2OS (Tango OPRK1-bla U2OS)
Excerpt: OPRKappa 1 Tango B-Arrestin Assay Protocol-Antagonist Mode. […] The assay uses Tango OPRK1-bla U2OS cells which express OPRK1 linked to a GAL4-VP16 transcription factor via a TEV protease site. The cells also express a β-arrestin/TEV protease fusion protein and a β-lactamase (BLA) reporter gene under the control of a UAS response element. Stimulation of the OPRK1 receptor by agonist causes migration of the β-arrestin fusion protein to the GPCR, and through proteolysis liberates GAL4-VP16 from the receptor. The liberated VP16-GAL4 migrates to the nucleus, where it induces transcription of the BLA gene. BLA expression is monitored by measuring fluorescence resonance energy transfer (FRET) of a cleavable, fluorogenic, cell-permeable BLA substrate. As designed, test compounds that are OPRK1 antagonists inhibit agonist activation and migration of the fusion protein, thus preventing proteolysis of GAL4-VP16 and BLA transcription, leading to no increase in well FRET. Compounds were tested in quadruplicate using a 10-point, 1:3 dilution series starting at a nominal concentration of 10 micromolar.
The Tango OPRK1-U20S Dividing cell line was routinely cultured in 150 mm dishes at 37C, 5% CO2 and 95% relative humidity (RH).
On Day 1 of the assay, 16,000 cells in 10 μL of assay media (DMEM-Glutamax—with Sodium Pyruvate, 10% fetal bovine serum stripped with charcoal-dextran (CDS), 25 mM HEPES, 0.1 mM non-essential amino acids, antibiotic mix (penicillin streptomycin)) were seeded into each well of a 384 Greiner 788092 black low profile, clear bottom, low volume plate, and incubated 16-24 hours at 37° C., 5% CO2 and 95% (RH).
On Day 2, 50 nL of test compound in DMSO was added to the appropriate wells and plates were incubated for 30 min at 37° C. 5% CO2 and 95% (RH). Next was added 0.65 μL of commercially available U50488 OPRK1 agonist or DMSO in assay media: this EC80 Challenge consists of 0.6 μL of 111 nM U50488 to yield a final assay concentration of 6 nM). After incubation for 4 hours at 37° C., 5% CO2 and 95% (RH), 2.5 μL of LiveBLazer™FRET B/G (CCF4-AM) Mix (Soln.'s A,B,C,&D) was added to each well and incubated at room temperature in the dark for 2 hours. Well fluorescence was measured on Perkin Elmer's Envision using an Excitation filter 409 nm, Emission filters at 460 nm and […], bottom read.
as §1
• Tango™OPRK1-bla U20S Cells (Invitrogen K1576) • McCoy's 5A Medium, (Invitrogen 16600-082) • Dialyzed Fetal Bovine Serum, (Invitrogen 26400-036) • Non Essential Amino Acids 100× (Invitrogen part 11140-050) • HEPES (pH 7.3) 1M, (Invitrogen 15630-080) • Sodium Pyruvate 100× (Invitrogen 11360-070) • Penicillin Streptomycin, (Invitrogen 15640) • Trypsin 0.25% EDTA (Invitrogen 25200056) • DPBS without Calcium/Magnesium (Invitrogen 14190-136) • DMEM, High Glucose, GlutaMAX (Invitrogen 10569-010) • Fetal Bovine Serum, Charcoal Stripped (Invitrogen 12676-011) • DMSO Dry (Sigma D2650) • U50488 OPRK1 Agonist MW410.29 (Tocris 67198-19-0) • GNTI dihydrochloride OPRK1 Antagonist MW571.5 (Tocris 1282) • Nor-Binaltorphimine dihydrochloridc MW770.75 (Tocris 0347)
LiveBLAzere™-FRET/BG Loading Mix: (Invitrogen K1030 (5 mg)), composed of Solutions A, B, C, and D: • Solution A (6 μL): LiveBLAzer™-FRET/BG Substrate (CCF4-AM) • Solution B (60 μL) • Solution C (904 μL) • Solution C (must add 250 μl of 1N NaOH to 45 mL of Solution C prior to use) • Solution D (30 μL) [Probinicid] (Sigma P8161) make 200 mM stock in NaOH—H2O.

T2 sequence (P41145 whole entry): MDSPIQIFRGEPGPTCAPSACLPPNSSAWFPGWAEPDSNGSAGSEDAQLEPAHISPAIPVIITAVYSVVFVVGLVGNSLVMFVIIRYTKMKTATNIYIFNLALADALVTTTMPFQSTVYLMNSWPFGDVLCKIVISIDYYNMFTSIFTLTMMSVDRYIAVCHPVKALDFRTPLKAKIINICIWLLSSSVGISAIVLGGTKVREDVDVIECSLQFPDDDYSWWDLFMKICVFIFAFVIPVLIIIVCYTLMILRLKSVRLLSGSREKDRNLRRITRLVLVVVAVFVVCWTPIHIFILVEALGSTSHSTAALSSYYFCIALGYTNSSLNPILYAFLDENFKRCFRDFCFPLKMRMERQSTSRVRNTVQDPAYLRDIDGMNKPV
T1 sequence (P35372 whole entry): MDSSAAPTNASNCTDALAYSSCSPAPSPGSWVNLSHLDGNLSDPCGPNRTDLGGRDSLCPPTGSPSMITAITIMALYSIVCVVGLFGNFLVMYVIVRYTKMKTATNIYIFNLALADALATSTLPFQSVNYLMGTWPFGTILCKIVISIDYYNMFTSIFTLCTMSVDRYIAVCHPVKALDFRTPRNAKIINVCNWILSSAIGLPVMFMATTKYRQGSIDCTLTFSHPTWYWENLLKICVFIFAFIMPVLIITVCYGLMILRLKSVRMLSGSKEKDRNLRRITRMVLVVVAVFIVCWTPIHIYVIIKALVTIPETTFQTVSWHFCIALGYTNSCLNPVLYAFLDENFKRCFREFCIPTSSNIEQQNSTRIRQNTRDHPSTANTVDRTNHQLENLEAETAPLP

SMILES | IC50 (mu opioid receptor (MOR)) [nM] | Selectivity (MOR/KOR) [1] | IC50 [1] [nM]
CCc1cc(F)c2nc(N3CCN(C4CC5(CCOCC5)C4)C[C@H]3C)c(-c3nc(C)no3)c(C)c2c1 [Compound 42] | > 1000 | +++ (between 100- to 1000-fold selective) | 10 to 100
CCc1cc(F)c2nc(N3CCN(C(=O)CN(C)C)C[C@H]3C)c(-c3ccn(C)n3)c(C)c2c1 [Compound 171] | > 1000 | +++ (between 100- to 1000-fold selective) | 10 to 100
CCc1cc(-c2ccnn2C)c2nc(N3CCC(NCC4(F)CCC4)CC3)c(-c3ccn(C)n3)c(C)c2c1 [Compound 90] | 10 to 100 | +++ (between 100- to 1000-fold selective) | < 1
CCc1cc(F)c2nc(N3CCN(/C(=N\C#N)NC4CCOCC4)C[C@H]3C)c(-c3nc(C)no3)c(C)c2c1 [Compound 56] | 100 to 1000 | ++ (between 10- and 100-fold selectivity) | 10 to 100
CCc1cc(F)c2nc(N3CCC(N[C@@H]4CCOC4)CC3)c(-c3cc(C)n(C)n3)c(C)c2c1 [Compound 66] | 100 to 1000 | +++ (between 100- to 1000-fold selective) | 1 to 10
CCc1cc(F)c2nc(N3CCN(C(=O)[C@@H](C)N(CC)CC)C[C@H]3C)c(-c3cc(C)no3)c(C)c2c1 [Compound 180] | > 1000 | +++ (between 100- to 1000-fold selective) | 1 to 10
CCc1cc(F)c2nc(N3CCN(C(=O)[C@@H](C)N(CC)CC)C[C@H]3C)c(-c3ccn(C)n3)c(C)c2c1 [Compound 170] | > 1000 | +++ (between 100- to 1000-fold selective) | 10 to 100
CCc1cc(-c2ccnn2C)c2nc(N3CCN(C[C@@H]4CCOC4)C[C@H]3C)c(-c3ccn(C)n3)c(C)c2c1 [Compound 97] | > 1000 | +++ (between 100- to 1000-fold selective) | 1 to 10
CCc1cc(F)c2nc(N3CCN(CC4CC(F)(F)C4)C[C@H]3C)c(-c3nc(C)no3)c(C)c2c1 [Compound 59, (R)-5-(2-(4-((3,3-difluorocyclobutyl)methyl)-2-methylpiperazin-1-yl)-6-ethyl-8-fluoro-4-methylquinolin-3-yl)-3-methyl-1,2,4-oxadiazole] | > 1000 | +++ (between 100- to 1000-fold selective) | 10 to 100
CCc1cc(-c2ccnn2C)c2nc(N3CCC(N4CCOC[C@H]4C)CC3)c(-c3ccn(C)n3)c(C)c2c1 [Compound 93] | > 1000 |  | > 1000
CCc1cc(F)c2nc(N3CCN(C(=O)[C@@H]4CCCCN4C)C[C@H]3C)c(-c3nc(C)no3)c(C)c2c1 [Compound 188] | > 1000 | +++ (between 100- to 1000-fold selective) | 10 to 100
CCc1cc(F)c2nc(N3CC[C@H](N[C@@H]4CCOC4)C[C@@H]3C)c(-c3ccn(C)n3)c(C)c2c1 [Compound 117] | 100 to 1000 | +++ (between 100- to 1000-fold selective) | 1 to 10
CCc1cc(-c2ccnn2C)c2nc(N3CCC(N)CC3)c(-c3ccn(C)n3)c(C)c2c1 [Compound 23, 1-(6-ethyl-4-methyl-3-(1-methyl-1H-pyrazol-3-yl)-8-(1-methyl-1H-pyrazol-5-yl)quinolin-2-yl)piperidin-4-amine] | > 1000 | + (less than 10-fold selectivity) | ≥ 100
CCc1cc(F)c2nc(N3CCN(C(=O)[C@@H]4C[C@@H](O)CN4C)C[C@H]3C)c(-c3nc(C)no3)c(C)c2c1 [Compound 160] | > 1000 | +++ (between 100- to 1000-fold selective) | 10 to 100
CCc1cc(-c2ccnn2C)c2nc(N3CCC(N[C@H]4CCOC[C@H]4F)CC3)c(-c3ccn(C)n3)c(C)c2c1 [Compound 21, 1-(6-ethyl-4-methyl-3-(1-methyl-1H-pyrazol-3-yl)-8-(1-methyl-1H-pyrazol-5-yl)quinolin-2-yl)-N-((3S,4S)-3-fluorotetrahydro-2H-pyran-4-yl)piperidin-4-amine] | 10 to 100 | ++ (between 10- and 100-fold selectivity) | 1 to 10
CCc1cc(-c2ccn(C)n2)c2nc(N3CCNC[C@H]3C)c(-c3nc(C)no3)c(C)c2c1 [Compound 104] | > 1000 | +++ (between 100- to 1000-fold selective) | 10 to 100
CCc1cc(F)c2nc(N3CCN(CC4CCOCC4)C[C@H]3C)c(-c3ccn(C)n3)c(C)c2c1 [Compound 2, (R)-6-ethyl-8-fluoro-4-methyl-3-(1-methyl-1H-pyrazol-3-yl)-2-(2-methyl-4-((tetrahydro-2H-pyran-4-yl)methyl)piperazin-1-yl)quinoline] | > 1000 | +++ (between 100- to 1000-fold selective) | 1 to 10
CCc1cc(-c2ccn(C)n2)c2nc(N3CCC(N[C@@H]4CCOC4)CC3)c(-c3ccn(C)n3)c(C)c2c1 [Compound 100] | > 1000 | ++++ (more than 1000-fold selectivity over MOR) | < 1

Source: patent US20260115185A1, “QUINOLINE DERIVATIVES WHICH ACT AS KAPPA-OPIOID RECEPTOR ANTAGONISTS” (The Scripps Research Institute, priority 2023, published 2026)
